The values below come from article PMC9030254, “Target Hopping from Protein Kinases to PXR: Identification of Small-Molecule Protein Kinase Inhibitors as Selective Modulators of Pregnane X Receptor from TüKIC Library” (Cells, 2022).

Holding throughout (experiment): Kinase profiling
Type in all cases: biochemical

Assay [1] has as its target T1, TSK2 (Homo sapiens, UniProt Q96PF2).
T1 construct: purchased ProQinase (Freiburg, Germany)
T1 sequence (Q96PF2 1-358): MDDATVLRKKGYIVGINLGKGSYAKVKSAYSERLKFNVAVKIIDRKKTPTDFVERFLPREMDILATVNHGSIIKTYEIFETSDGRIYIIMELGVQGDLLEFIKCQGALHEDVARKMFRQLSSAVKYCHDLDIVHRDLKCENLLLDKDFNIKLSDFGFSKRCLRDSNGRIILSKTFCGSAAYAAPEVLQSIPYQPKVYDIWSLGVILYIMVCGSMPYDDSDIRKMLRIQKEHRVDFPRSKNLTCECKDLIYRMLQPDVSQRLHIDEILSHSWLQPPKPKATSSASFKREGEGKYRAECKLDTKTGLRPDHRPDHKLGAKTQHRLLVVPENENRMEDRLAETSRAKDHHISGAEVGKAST
Here is the method:
(§1) The analysis was performed by ProQinase (Freiburg, Germany).

In assay [2] the target is T2, GRK5 (Homo sapiens, UniProt P34947).
T2 construct: purchased ProQinase (Freiburg, Germany)
The protocol: as §1

The target of assay [3] is T3, PRKX (Homo sapiens, UniProt P51817).
T3 construct: purchased ProQinase (Freiburg, Germany)
T3 sequence (P51817 1-358): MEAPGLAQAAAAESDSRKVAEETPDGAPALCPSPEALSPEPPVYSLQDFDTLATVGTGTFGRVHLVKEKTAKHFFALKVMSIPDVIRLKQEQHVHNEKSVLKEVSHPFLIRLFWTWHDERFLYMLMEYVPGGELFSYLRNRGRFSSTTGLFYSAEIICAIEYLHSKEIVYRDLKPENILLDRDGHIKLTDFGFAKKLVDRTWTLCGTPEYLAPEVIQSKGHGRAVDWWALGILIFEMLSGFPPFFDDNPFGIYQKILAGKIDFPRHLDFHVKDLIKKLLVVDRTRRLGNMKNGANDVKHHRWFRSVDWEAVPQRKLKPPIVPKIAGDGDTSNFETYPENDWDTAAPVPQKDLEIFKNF
Here is the method:
as §1

Assay [4] deals with T4, EPHA6 (Homo sapiens, UniProt Q9UF33).
T4 construct: purchased ProQinase (Freiburg, Germany)
T4 sequence (Q9UF33 23-1036): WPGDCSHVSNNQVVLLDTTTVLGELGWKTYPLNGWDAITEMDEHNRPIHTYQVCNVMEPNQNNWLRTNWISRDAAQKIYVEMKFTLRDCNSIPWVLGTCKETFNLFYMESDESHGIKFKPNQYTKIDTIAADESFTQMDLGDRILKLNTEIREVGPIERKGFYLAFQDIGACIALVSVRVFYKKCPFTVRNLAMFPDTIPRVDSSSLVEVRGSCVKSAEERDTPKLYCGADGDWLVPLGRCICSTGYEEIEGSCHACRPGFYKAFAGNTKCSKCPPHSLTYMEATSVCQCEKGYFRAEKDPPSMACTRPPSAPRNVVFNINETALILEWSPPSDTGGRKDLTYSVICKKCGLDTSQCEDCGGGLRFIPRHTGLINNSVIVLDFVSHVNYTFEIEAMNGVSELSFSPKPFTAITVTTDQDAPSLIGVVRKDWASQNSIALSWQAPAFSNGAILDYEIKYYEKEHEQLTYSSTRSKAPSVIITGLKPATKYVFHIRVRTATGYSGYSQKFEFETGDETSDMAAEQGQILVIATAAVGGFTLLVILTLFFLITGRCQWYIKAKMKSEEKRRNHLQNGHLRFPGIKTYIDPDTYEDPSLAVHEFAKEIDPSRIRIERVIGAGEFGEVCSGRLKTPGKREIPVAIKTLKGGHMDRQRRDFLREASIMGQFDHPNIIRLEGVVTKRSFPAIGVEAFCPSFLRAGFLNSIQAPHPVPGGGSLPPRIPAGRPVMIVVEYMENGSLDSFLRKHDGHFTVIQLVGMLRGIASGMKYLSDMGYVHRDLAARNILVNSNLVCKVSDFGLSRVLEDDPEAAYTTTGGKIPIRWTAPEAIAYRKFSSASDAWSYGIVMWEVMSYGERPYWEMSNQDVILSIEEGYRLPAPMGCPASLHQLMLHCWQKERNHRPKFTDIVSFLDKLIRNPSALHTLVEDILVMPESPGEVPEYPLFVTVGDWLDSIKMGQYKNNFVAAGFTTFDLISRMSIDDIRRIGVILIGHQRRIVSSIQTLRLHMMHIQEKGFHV
Here is the method: as §1

Assay [5] addresses T5, SRPK1 (Homo sapiens, UniProt Q96SB4).
T5 construct: purchased ProQinase (Freiburg, Germany)
Here is the method: as §1

In assay [6] the target is T6, MAP4K2 (Homo sapiens, UniProt Q12851).
T6 construct: purchased ProQinase (Freiburg, Germany)
T6 sequence (Q12851 1-820): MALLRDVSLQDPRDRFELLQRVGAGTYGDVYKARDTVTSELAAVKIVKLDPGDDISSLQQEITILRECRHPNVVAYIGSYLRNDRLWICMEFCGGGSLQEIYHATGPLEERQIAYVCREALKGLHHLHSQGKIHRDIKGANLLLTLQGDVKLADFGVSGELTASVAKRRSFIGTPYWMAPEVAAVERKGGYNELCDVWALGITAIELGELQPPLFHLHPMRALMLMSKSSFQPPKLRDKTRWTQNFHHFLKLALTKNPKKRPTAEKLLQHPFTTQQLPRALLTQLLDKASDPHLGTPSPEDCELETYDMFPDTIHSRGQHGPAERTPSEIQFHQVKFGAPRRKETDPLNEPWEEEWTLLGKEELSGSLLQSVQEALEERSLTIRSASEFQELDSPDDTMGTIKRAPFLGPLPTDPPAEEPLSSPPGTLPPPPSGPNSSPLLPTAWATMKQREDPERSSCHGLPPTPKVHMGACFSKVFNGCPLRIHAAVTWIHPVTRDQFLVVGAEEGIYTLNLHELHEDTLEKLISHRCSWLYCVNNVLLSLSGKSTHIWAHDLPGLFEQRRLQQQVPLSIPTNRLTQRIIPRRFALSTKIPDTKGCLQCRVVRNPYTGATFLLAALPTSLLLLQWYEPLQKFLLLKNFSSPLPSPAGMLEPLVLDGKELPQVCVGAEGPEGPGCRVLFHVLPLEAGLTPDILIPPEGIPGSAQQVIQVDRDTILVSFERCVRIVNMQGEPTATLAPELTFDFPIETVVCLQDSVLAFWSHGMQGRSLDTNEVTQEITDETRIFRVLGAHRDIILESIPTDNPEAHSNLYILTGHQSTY
The protocol:
as §1

The target in assay [7] is T7, MKNK1 (Homo sapiens, UniProt Q9BUB5).
T7 construct: purchased ProQinase (Freiburg, Germany)
The protocol:
as §1

Assay [8] deals with T8, CAMKK2 (Homo sapiens, UniProt Q96RR4).
T8 construct: purchased ProQinase (Freiburg, Germany)
Here is the method: as §1

T2 sequence (P34947 whole entry): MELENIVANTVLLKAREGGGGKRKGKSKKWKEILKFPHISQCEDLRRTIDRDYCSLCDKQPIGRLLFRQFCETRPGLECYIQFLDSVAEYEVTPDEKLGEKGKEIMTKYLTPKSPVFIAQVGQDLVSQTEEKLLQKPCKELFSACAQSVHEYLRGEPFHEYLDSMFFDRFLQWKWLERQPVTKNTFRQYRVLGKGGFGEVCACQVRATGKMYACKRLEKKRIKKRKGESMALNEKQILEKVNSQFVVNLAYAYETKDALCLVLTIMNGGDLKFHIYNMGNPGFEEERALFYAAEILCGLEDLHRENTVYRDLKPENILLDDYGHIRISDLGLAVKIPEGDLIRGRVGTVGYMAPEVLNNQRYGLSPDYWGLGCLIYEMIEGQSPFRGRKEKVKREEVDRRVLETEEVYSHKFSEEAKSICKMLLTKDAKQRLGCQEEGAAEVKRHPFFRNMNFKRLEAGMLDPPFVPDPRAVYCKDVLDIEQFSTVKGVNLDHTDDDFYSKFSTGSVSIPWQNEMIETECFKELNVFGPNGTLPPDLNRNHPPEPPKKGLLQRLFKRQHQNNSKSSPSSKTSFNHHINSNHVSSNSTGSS
T8 sequence (Q96RR4 whole entry): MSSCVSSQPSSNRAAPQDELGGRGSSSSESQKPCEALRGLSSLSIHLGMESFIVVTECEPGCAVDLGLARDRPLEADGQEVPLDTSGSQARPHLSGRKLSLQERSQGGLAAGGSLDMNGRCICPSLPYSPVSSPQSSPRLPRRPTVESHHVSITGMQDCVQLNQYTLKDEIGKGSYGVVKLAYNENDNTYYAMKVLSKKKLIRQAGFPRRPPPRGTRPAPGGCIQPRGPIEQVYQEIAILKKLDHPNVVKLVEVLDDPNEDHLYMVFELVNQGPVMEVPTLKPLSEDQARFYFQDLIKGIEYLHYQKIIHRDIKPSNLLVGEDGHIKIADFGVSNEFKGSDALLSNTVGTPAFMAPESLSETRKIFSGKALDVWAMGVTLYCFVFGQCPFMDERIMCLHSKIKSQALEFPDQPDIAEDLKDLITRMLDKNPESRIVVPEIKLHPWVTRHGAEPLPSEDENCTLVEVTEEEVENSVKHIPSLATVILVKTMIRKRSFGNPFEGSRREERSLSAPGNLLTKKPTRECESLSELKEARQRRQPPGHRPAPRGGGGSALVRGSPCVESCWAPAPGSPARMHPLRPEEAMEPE
T5 sequence (Q96SB4 whole entry): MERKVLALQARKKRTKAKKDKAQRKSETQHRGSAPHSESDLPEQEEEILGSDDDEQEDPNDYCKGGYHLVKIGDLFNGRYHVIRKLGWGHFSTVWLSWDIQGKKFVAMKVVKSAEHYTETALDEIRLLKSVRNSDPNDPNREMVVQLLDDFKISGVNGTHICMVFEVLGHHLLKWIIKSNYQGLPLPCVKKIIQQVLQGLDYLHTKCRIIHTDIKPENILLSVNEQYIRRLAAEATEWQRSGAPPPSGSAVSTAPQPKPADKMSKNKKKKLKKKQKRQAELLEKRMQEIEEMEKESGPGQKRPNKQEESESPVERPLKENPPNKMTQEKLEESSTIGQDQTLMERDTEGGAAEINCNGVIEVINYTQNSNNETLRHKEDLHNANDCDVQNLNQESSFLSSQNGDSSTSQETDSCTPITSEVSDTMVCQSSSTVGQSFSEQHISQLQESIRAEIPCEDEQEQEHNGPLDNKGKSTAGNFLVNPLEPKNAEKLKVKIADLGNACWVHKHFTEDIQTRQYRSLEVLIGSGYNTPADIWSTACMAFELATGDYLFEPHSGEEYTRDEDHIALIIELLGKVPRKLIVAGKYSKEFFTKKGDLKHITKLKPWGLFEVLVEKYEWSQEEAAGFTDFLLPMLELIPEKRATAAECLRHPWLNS
T7 sequence (Q9BUB5 whole entry): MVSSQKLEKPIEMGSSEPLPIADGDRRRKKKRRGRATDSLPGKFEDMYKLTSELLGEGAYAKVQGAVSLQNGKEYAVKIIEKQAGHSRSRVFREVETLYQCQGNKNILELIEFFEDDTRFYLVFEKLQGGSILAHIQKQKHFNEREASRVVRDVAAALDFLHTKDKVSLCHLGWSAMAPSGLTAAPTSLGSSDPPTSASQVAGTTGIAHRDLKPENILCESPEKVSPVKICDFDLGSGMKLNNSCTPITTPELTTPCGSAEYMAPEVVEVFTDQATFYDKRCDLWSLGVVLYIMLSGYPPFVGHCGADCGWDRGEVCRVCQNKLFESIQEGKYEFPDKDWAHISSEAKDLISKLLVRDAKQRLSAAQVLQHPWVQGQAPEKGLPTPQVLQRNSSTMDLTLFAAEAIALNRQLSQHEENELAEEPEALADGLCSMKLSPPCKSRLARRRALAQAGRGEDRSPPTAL

For `O=C(Cc1ccccc1)Nc1ccc(F)c(Nc2ccc3c(c2)CCCCC3=O)c1` [Compound 100], the Residual activity in assay [1] (1.0E-05 M) is given as 93 % of control; in assay [1] (1.0E-06 M), 97 % of control; in assay [2] (1.0E-05 M), 106 % of control; in assay [2] (1.0E-06 M), 104 % of control; in assay [3] (1.0E-05 M), 88 % of control; in assay [3] (1.0E-06 M), 102 % of control. In addition, the Residual activity in assay [4] (1.0E-05 M) is 80 % of control; in assay [4] (1.0E-06 M), 110 % of control; in assay [5] (1.0E-05 M) it was 71 % of control; in assay [5] (1.0E-06 M), 94 % of control; in assay [6] (1.0E-05 M), 71 % of control; in assay [6] (1.0E-06 M), 94 % of control. Also, the Residual activity in assay [7] (1.0E-05 M) is on record as 95 % of control; in assay [7] (1.0E-06 M), 90 % of control; in assay [8] (1.0E-05 M) it was 95 % of control; in assay [8] (1.0E-06 M), 97 % of control.

Consider `O=C(Nc1ccc(F)c(Nc2ccc3c(c2)CCCCC3=O)c1)c1cccc(F)c1` [Compound 109], for which the Residual activity in assay [1] (1.0E-05 M) is on record as 99 % of control; in assay [1] (1.0E-06 M), 88 % of control; in assay [2] (1.0E-05 M), 103 % of control; in assay [2] (1.0E-06 M), 102 % of control; in assay [3] (1.0E-05 M), 85 % of control; in assay [3] (1.0E-06 M), 95 % of control. Moreover, the Residual activity in assay [4] (1.0E-05 M) was 94 % of control; in assay [4] (1.0E-06 M) it was 100 % of control; in assay [5] (1.0E-05 M), 68 % of control; in assay [5] (1.0E-06 M) it was 96 % of control; in assay [6] (1.0E-05 M) it was 93 % of control; in assay [6] (1.0E-06 M) it was 95 % of control. Moreover, the Residual activity in assay [7] (1.0E-05 M) is reported as 91 % of control; in assay [7] (1.0E-06 M) it was 92 % of control; in assay [8] (1.0E-05 M), 81 % of control; in assay [8] (1.0E-06 M), 84 % of control.
